Structures can show the parent of a compound that is named as a salt. Where two headings read alike, the source gives them in different places.
Assays:
[1] = target: T1, cyclooxygenase derived from rat basophilic leukemia (RBL-1) cells (Rattus norvegicus, UniProt Q63921); assay: % inhibition of formation of cyclooxygenase product prostaglandin D2 (C1) in RBL-1 microsomal homogenate; assay type: biochemical; design: inhibition: dose or concentration left out as unconfirmed; settings: read-out: % Inhibition in vitro, C1 (prostaglandin D2)
T1 construct: Single cell suspensions of RBL-1 cells are homogenized to obtain the microsomal fraction containing lipoxygenase and cyclooxygenase; endogenous in cells; host or cells: RBL-1 (rat basophilic leukemia) cells, homogenate/microsomal fraction
T1 sequence (Q63921 27-602): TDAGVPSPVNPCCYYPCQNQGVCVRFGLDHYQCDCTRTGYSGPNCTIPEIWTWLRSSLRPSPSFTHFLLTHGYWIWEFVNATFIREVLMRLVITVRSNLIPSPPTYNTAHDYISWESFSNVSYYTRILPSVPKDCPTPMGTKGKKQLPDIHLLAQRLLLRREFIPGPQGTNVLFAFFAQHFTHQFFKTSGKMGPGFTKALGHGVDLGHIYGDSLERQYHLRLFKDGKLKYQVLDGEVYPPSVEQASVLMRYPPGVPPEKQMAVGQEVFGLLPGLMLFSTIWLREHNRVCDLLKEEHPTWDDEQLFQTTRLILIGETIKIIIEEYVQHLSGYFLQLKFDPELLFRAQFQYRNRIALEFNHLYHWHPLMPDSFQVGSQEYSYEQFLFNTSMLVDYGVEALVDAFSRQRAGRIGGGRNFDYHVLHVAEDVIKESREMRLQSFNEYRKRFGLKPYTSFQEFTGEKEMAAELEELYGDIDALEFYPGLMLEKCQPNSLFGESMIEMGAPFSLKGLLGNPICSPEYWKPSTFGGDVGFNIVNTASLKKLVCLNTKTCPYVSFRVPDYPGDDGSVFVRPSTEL
Procedure: (§1) The primary screening test used is a determination of the inhibition of lipoxygenase and cyclooxygenase derived from rat basophilic leukemia (RBL-1) cells. The test was carried out according to the following procedure:
(§2) Single cell suspensions of RBL-1 cells are homogenized to obtain the microsomal fraction containing lipoxygenase and cyclooxygenase. Test compounds are added to the enzyme-containing homogenate for a 5 min. preincubation period at 37° C. prior to the addition of ^14 C-arachidonic acid substrate. Following incubation at 37° C. for 15 min., the reaction is stopped by the addition of 2M formic acid and the enzyme-substrate products are extracted into chloroform. An aliquot of the extract is evaporated to dryness, reconstituted in ether to 1/10 original volume, spotted on thin layer chromatography plates and chromatographed. The peak areas of radioactivity representing the products are located by scanning the plates. The quantity of products formed is estimated by measuring the height of the radioactivity peaks observed on the chromatographic scans. Alternatively, the areas of radioactivity are scraped from the plate and the ^14 C quantitated by scintillation counting. The percent inhibition in the formation of the cyclooxygenase product prostaglandin D2, designated as C1, and lipoxygenase products 5,12-di-HETE and 5-HETE, designated L1 and L2 respectively, are shown. Compounds with >50% inhibition of L1 and L2 at a screening concentration of 1 μM are considered active.

[2] = target: T2, lipoxygenase derived from rat basophilic leukemia (RBL-1) cells (Rattus norvegicus, UniProt P12527); assay: % inhibition of formation of lipoxygenase products 5,12-di-HETE (L1) and 5-HETE (L2) in RBL-1 microsomal homogenate; assay type: biochemical; design: inhibition: dose or concentration left out as unconfirmed
T2 construct: Single cell suspensions of RBL-1 cells are homogenized to obtain the microsomal fraction containing lipoxygenase and cyclooxygenase; endogenous in cells; host or cells: RBL-1 (rat basophilic leukemia) cells, homogenate/microsomal fraction
T2 sequence (P12527 1-673): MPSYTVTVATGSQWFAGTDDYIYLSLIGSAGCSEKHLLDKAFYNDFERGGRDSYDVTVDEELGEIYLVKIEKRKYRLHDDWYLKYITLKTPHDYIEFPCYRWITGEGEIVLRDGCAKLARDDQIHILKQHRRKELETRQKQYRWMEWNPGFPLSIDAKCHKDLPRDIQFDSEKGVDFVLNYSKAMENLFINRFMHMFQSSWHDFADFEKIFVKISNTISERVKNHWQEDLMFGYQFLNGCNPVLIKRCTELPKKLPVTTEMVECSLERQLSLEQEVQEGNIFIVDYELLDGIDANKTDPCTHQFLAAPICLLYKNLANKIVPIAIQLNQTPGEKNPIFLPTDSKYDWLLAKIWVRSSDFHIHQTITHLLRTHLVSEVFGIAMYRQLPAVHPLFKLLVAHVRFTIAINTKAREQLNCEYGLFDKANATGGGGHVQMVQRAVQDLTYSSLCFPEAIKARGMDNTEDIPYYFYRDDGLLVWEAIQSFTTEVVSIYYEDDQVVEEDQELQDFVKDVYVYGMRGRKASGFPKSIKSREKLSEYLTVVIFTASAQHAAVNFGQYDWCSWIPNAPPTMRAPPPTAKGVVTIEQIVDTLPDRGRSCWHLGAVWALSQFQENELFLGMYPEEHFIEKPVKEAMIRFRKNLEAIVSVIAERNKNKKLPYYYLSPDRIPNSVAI
Procedure: as §1, §2

[3] = tested on: SRS-A component of immunologically induced bronchoconstriction; assay: effect on the SRS-A component of immunologically induced bronchoconstriction in guinea pigs; assay type: in vivo; settings: guinea pig
Procedure: The test was carried out according to the following procedure: Outbred female guinea pigs were sensitized to egg albumin by a 1 mL ip injection of a 1 mg/mL egg albumin alum suspension. Twelve to sixteen days after immunization, the animals were used for the test. They were anesthetized with urethane (1.5 gm/kg ip) and surgically prepared with a jugular vein canula connected to a three-way stopcock for administration of drugs and antigen challenge. The trachea was cannulated and the animal artifically respired. The intratracheal pressure was continuously recorded and expressed in mm Hg. Naproxen sodium (10 mg/kg) and pyrilamine maleate (0.3 mg/kg) in phosphate buffered saline, pH 7.2, were administered intravenously in a single solution seven minutes prior to antigen challenge. Propranolol (0.1 mg/kg) was also given iv three minutes prior to challenge with egg albumin (300 μg/kg iv). The animals were dosed orally with compounds in water or in a vehicle of 3% corn starch, 5% polyethylene glycol 400, and 0.34% Tween 8™ in water at one or four hours before challenge. Results were recorded as the maximum increase in intratracheal pressure following antigen challenge. Activity of the compounds was measured as percent inhibition of the mean peak intratracheal pressure in the group of dosed animals in comparison to the mean peak intratracheal pressure in the group of vehicle treated animals. The results are expressed in terms of % inhibition.

[4] = 0.25 h, line carries a superscript without letter (probably footnote a, 0.1 μM)
[5] = 0.25 h, line carries a superscript without letter (probably footnote a, 0.1 μM), read-out: % Inhibition in vitro, L1 (5,12-di-HETE)
[6] = 0.25 h, line carries a superscript without letter (probably footnote a, 0.1 μM), read-out: % Inhibition in vitro, L2 (5-HETE)
[7] = 100 mg/kg p.o., at 1 hour before challenge
[8] = 100 mg/kg p.o., at 4 hours before challenge
[9] = read-out: % Inhibition in vitro, L1 (5,12-di-HETE)
[10] = read-out: % Inhibition in vitro, L2 (5-HETE)

Row | inhibition at 1 µM [1, 4] | inhibition at 1 µM [2, 5] | inhibition at 1 µM [2, 6] | inhibition [1] | inhibition [2, 10] | Compound | % Inhibition in vivo (mean peak intratracheal pressure) [3, 7] | % Inhibition in vivo (mean peak intratracheal pressure) [3, 8] | further results
1 | 0% | 100% | 100% | – | – | N#CCCCCNc1ccc(O)cc1 [Example 1c, 5-[(4-Hydroxyphenyl)amino]pentanenitrile] | – | – | –
2 | – | – | – | – | – | N#CCCCCCCNc1ccc(O)cc1 [Example 2d, 7-[(4-Hydroxyphenyl)amino]heptanenitrile] | 66% | 61% | inhibition at 1 µM [1]: 42%; inhibition at 1 µM [2, 9]: 92%; inhibition at 1 µM [2, 10]: 98%
3 | – | – | – | 0% | 100% | Cl.N#CCCCCCCNc1ccccc1O [Example 3c, 7-[(2-Hydroxyphenyl)amino]heptanenitrile monohydrochloride] | 4% | 11% | –
4 | 0% | 100% | 100% | – | – | N#CCCCCCCCNc1ccc(O)cc1.O=C(O)/C=C\C(=O)O [Example 4c, 8-[(4-Hydroxyphenyl)amino]octanenitrile (Z)-2-butenedioate] | 17% | 76% | –
5 | – | – | – | 0% | 95% | N#CCCCCCCCCNc1ccc(O)cc1.O=C(O)/C=C\C(=O)O [Example 5c, 9-[(4-Hydroxyphenyl)amino]nonanenitrile (Z)-2-butenedioate] | 0% | 25% | inhibition [2, 9]: 82%
6 | 28% | 100% | 100% | – | – | CN(CCCCCCC#N)c1ccc(O)cc1 [Example 6c] | 6% | – | –
7 | – | – | – | 14% | 85% | CC(=O)Oc1ccc(N(C)CCCCCCC#N)cc1 [Example 6d, 7-[[4-(Acetyloxy)phenyl]methylamino]heptanenitrile] | – | – | inhibition [2, 9]: 91%
8 | – | – | – | 0% | 65% | Cc1cc(O)ccc1NCCCCCCC#N.Cl [Example 7c, 7-[(4-Hydroxy-2-methylphenyl)amino]heptanenitrile monohydrochloride] | – | – | % Inhibition in vivo (mean peak intratracheal pressure) ([3]; 300 mg/kg p.o. (footnote b), at 1 hour before challenge): 66%; % Inhibition in vivo (mean peak intratracheal pressure) ([3]; 300 mg/kg p.o. (footnote b), at 4 hours before challenge): 86%
9 | 13% | 100% | 100% | – | – | Cc1cc(NCCCCCCC#N)ccc1O [Example 8c, 7-[(4-Hydroxy-3-methylphenyl)amino]heptanenitrile monohydrochloride] | – | – | –
10 | – | – | – | 9% | 95% | N#CCCCCCCNc1cc(Cl)c(O)c(Cl)c1 [Example 9c, 7-[(3,5-Dichloro-4-hydroxyphenyl)amino]heptanenitrile monohydrochloride] | – | – | –
11 | 10% | 100% | 100% | – | – | N#CCCCCCCNc1ccc(O)c(CO)c1 [Example 10c, 7-[[4-Hydroxy-3-(hydroxymethyl)phenyl]amino]heptanenitrile monohydrochloride] | – | – | –
12 | – | – | – | 22% | 93% | Cl.N#CCCCCCCNc1ccc(O)cc1F [Example 11c, 7-[(2-Fluoro-4-hydroxyphenyl)amino]heptanenitrile monohydrochloride] | 7% | 30% | inhibition [2, 9]: 86%
